Data from patent publication US20240002463A1, “CHEMOGENETIC RECEPTORS AND METHODS OF MAKING AND USING” (Howard Hughes Medical Institute, priority 2022, published 2024).
pEC50: −log10 of the molar value. Like-named read-outs stand apart in the source and are kept apart here.

Legend:
α7-GlyR = molecular target: T1, α7-GlyR (Homo sapiens, UniProt P36544); assay: agonist potency/activity at unmodified α7-GlyR chimeric channel; type: cell-based
T1 construct: expressed in transfected cells; host or cells: HEK-293 (transient transfection)

α7-5HT3 [1] = molecular target: T2, α7-5HT3 (Homo sapiens, UniProt P36544, M226I/T225I); assay: agonist potency/activity at unmodified α7-5HT3 chimeric channel; type: cell-based; conditions: agonist activity at unmodified α7-5HT3; read-out: EC50α7-5HT3
T2 construct: expressed in transfected cells; host or cells: HEK-293 (transient transfection)

dopamine release = conditions: cited from earlier work
[2] = cited from earlier work
α7-5HT3 [3] = molecular target: T3, α7-5HT3 (Homo sapiens, UniProt P36544); assay: agonist potency/activity at unmodified α7-5HT3 chimeric channel; type: cell-based
T3 construct: expressed in transfected cells; host or cells: HEK-293 (transient transfection)

[4] = test system: hippocampal neurons expressing Gpr40; assay: patch clamp electrophysiology of hippocampal neurons expressing Gpr40; type: cell-based, rat; conditions: 0.2 μM; FIG. 12A
Procedure: For engineered neuromodulation of neurons by fatty acids, a fatty acid […] (Gpr40) was expressed in hippocampal neurons. Neuron firing was increased in response to a fatty acid, palmitate (20 μM), as well as a synthetic Gpr40 agonist, GW9508 (0.2 μM) (FIG. 12A, 12B). For testing, embryonic rat hippocampal neurons are transfected by electroporation with a plasmid expressing GPR40 and an mCherry fluorescent protein. Then cells are plated on poly-D-lysine coated 13 mm dia #1 glass coverslips in the wells of a 24 well plates at 50,000 cells/well. Each well receives 60 μL of cell suspension plus 60 μL of NbActiv4 medium (BrainBits) and are incubated at 37 C in 5% CO2 for 4 hours for initial cell attachment. NbActiv4 media (1 mL) is then added to each well and cultures kept for the duration of the experiment. Weekly medium changes are done by replacing 0.5 mL medium from each well with fresh NbActiv4. Fluorescent cells are recorded by patch clamp electrophysiology while palmitate or GW9508 are perfused over the cells intermittently in a saline extracellular solution.

[5] = rat; estimated; cited from earlier work

T3 sequence (P36544 with tags, fused parts or gaps T225I/M226I): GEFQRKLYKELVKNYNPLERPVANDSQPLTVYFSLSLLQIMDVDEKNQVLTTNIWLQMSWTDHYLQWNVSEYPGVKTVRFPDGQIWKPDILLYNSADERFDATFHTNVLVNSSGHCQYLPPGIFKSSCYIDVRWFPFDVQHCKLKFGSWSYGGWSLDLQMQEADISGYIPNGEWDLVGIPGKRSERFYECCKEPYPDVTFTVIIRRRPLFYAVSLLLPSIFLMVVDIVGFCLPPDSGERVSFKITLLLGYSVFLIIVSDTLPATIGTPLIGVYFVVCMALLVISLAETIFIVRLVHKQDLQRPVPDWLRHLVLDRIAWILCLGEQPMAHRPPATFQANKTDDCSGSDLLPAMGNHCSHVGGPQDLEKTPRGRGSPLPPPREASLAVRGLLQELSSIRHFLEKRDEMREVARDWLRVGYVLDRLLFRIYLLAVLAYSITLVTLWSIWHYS
T2 sequence (P36544 with tags, fused parts or gaps T225I/M226I): as above
T1 sequence (P36544 with tags, fused parts or gaps): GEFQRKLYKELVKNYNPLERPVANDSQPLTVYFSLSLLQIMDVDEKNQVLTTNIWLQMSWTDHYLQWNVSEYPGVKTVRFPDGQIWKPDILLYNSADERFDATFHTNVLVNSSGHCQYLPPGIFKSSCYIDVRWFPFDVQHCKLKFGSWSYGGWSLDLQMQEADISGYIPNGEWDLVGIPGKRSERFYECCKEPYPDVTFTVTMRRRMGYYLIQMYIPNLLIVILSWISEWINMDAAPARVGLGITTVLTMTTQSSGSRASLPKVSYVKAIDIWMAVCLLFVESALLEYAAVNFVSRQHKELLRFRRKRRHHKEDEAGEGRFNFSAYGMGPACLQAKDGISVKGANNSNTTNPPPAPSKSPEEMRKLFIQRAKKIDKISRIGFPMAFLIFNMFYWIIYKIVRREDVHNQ

In the case of `C[N+](C)(C)CCO` [Choline], the pEC50 (α7-GlyR) was 3.99 and the pEC50 (α7-5HT3 [1]) was 4.43.

For `CN1CCCC1c1cccnc1` (centres unmarked) [Nicotine], the pEC50 (dopamine release; nucleus accumbens, read-out: EC50 dopamine release in the nucleus accumbens) is listed as 6.32.

In the case of `CN[C@@H](C)Cc1ccccc1` [methamphetamine, Methamphetamine], the “blood concentration during self-administration” value ([2]; in females) is listed as 900 nM, the “blood concentration during self-administration” value ([2]; in males) is listed as 700 nM and the “agonist activity at unmodified chimeric receptor α7-5HT3” value (α7-5HT3 [3]) is listed as “do not show agonist activity”.

For `CNC(C)C(=O)c1ccc(C)cc1` (centres unmarked) [mephedrone, Mephedrone], the pEC50 (dopamine release; read-out: EC50 for DA release) is listed as about 6.52.

For `COC(=O)C(c1ccccc1)C1CCCCN1` (centres unmarked) [methylphenidate, Methylphenidate], the pEC50 (dopamine release; striatum, read-out: EC50 for release of DA in the striatum) is given as 5.00.

In the case of `O=C(O)CCc1ccc(NCc2cccc(Oc3ccccc3)c2)cc1` [GW9508], the neuron firing [4] was “increased”.

In the case of `CNC(C)C(=O)c1ccc2c(c1)OCO2` (centres unmarked) [methylone, Methylone], the pEC50 (dopamine release; read-out: EC50 for DA release) is given as about 6.40.

For `COC(=O)[C@H]1[C@@H](OC(=O)c2ccccc2)C[C@@H]2CC[C@H]1N2C` [Cocaine], the “brain concentration maintained by self-administration” value [5] is given as 10000 to 20000 nM.

For `CCCC(C(=O)c1ccc2c(c1)OCO2)N1CCCC1` (centres unmarked) [MDPV, methylenedioxypyrvalerone], the pEC50 (dopamine release; read-out: EC50 for DA release) is listed as 7.00.

In the case of `CC(N)Cc1ccccc1` (centres unmarked) [amphetamine, Amphetamine], the pEC50 (dopamine release; read-out: EC50 for DA release) is listed as 6.30.

For `CNC(C)Cc1ccc2c(c1)OCO2` (centres unmarked) [MDMA, 3,4-Methylenedioxy-methamphetamine], the “agonist activity at unmodified chimeric receptor α7-5HT3” value (α7-5HT3 [3]) was “do not show agonist activity”.
